Test results as given in the supplement of paper PMC10307832.

Experiments:
Assay in all cases: relative viability (nuclei count vs DMSO), 5 days (fraction); higher = more cells survive
Mirin + Olaparib = compound: N=C1NC(=O)/C(=C/c2ccc(O)cc2)S1 [Mirin] + O=C(c1cc(Cc2n[nH]c(=O)c3ccccc23)ccc1F)N1CCN(C(=O)C2CC2)CC1 [Olaparib] (partner 8 µM)
In short: (§1)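 Lung cancer cell lines in 1536-well plates got either a single drug or a fixed anchor-drug dose together with five library-drug doses (not always all listed) in √10 steps, by pin tool, on the day after seeding. Nuclei were counted after 5 days, and relative viability is the treated-to-vehicle ratio of nuclei counts. Values are medians of duplicate plates.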

[1] = compound: CCC1=CN=CN=C1N2CCN(CC2)CC3=NC4=C(N3)C=C(C=C4)C(F)(F)F + CS(=O)(=O)CCNCc1ccc(-c2ccc3ncnc(Nc4ccc(OCc5cccc(F)c5)c(Cl)c4)c3c2)o1 [Lapatinib] (partner 2 µM)
In short: as §1

Mirin + Trametinib = compound: N=C1NC(=O)/C(=C/c2ccc(O)cc2)S1 [Mirin] + CC(=O)Nc1cccc(-n2c(=O)n(C3CC3)c(=O)c3c(Nc4ccc(I)cc4F)n(C)c(=O)c(C)c32)c1 [Trametinib] (partner 0.02 µM)
In short: as §1

[2] = compound: CCC1=CN=CN=C1N2CCN(CC2)CC3=NC4=C(N3)C=C(C=C4)C(F)(F)F + NC(=O)Nc1cc(-c2cccc(F)c2)sc1C(=O)N[C@H]1CCCNC1 [AZD7762] (partner 0.2 µM)
In short: as §1

Cell Line	relative viability (Mirin + Olaparib; first compound 0.25 µM)	relative viability (Mirin + Olaparib; first compound 0.7906 µM)	relative viability (Mirin + Olaparib; first compound 2.5 µM)	relative viability (Mirin + Olaparib; first compound 25 µM)	relative viability ([1]; first compound 0.04 µM)	relative viability ([1]; first compound 0.1265 µM)	relative viability ([1]; first compound 0.4 µM)	relative viability ([1]; first compound 1.265 µM)	relative viability ([1]; first compound 4 µM)	relative viability (Mirin + Olaparib; first compound 7.906 µM)	relative viability (Mirin + Trametinib; first compound 0.25 µM)	relative viability (Mirin + Trametinib; first compound 0.7906 µM)	relative viability (Mirin + Trametinib; first compound 2.5 µM)	relative viability (Mirin + Trametinib; first compound 7.906 µM)	relative viability (Mirin + Trametinib; first compound 25 µM)	relative viability ([2]; first compound 0.04 µM)	relative viability ([2]; first compound 0.1265 µM)	relative viability ([2]; first compound 0.4 µM)	relative viability ([2]; first compound 1.265 µM)	relative viability ([2]; first compound 4 µM)
IA-LM	0.786	0.947	0.765	0.902	0.85	0.781	0.736	0.923	0.893											
LCLC-103H	0.703	0.892	0.758	0.89						0.847	0.744	0.799	0.735	0.735	0.833	0.776	0.774	0.794	0.684	0.865
NCI-H441	0.468	0.582	0.674	0.401						0.412	0.528	0.404	0.428	0.557	0.508	1.29	1.15	1.03	1.15	1.21
NCI-H520	0.311	0.336	0.307	0.187	0.846	0.862	0.857	0.588	0.729	0.349	0.542	0.571	0.659	0.603	0.477					
NCI-H522	0.583	0.665	0.624	0.508						0.719	0.682	0.741	0.872	0.768	0.519	0.87	0.869	0.707	0.748	0.901
NCI-H661	0.713	0.759	0.712	0.655	0.646	0.437	0.411		0.475	0.707	0.59	0.722	0.628	0.482	0.575					
NCI-H1299	1.03	1.01	0.958	1.03	0.977	0.985	0.96	0.948	0.955	0.867										
NCI-H1563					0.903	0.908	0.984	0.715	1.36											
NCI-H1648	0.572		0.955	0.764						0.639	0.448		0.41	0.457	0.389	0.666			0.655	0.683
NCI-H1650	0.789	0.929	0.817	0.732	0.721	0.797	0.711	0.39	0.645	0.755	0.534	0.544	0.579	0.551	0.62					
NCI-H1703	0.414	0.384	0.412	0.635	0.966	0.819	0.921	0.804	0.923								0.148	0.125		0.126
NCI-H2009	0.727	0.737	0.684	0.675	1.07	1	0.894	0.715	0.808	0.524	0.277	0.334	0.334	0.293	0.282					
NCI-H2023	0.496	0.506	0.454	0.416	0.716	0.765	0.749	0.527	0.763	0.459	0.716	0.558	0.668	0.56	0.597					
NCI-H2228	0.552	0.676	0.819	0.723	0.949	1.11	0.79	1.14	1.06	0.666	0.627	0.39	0.551	0.382	0.423					
NCI-H2342	0.441	0.442	0.427	0.368							0.805	0.853	0.803		0.751	0.441	0.389	0.467	0.397	0.419
SK-LU-1	0.5	0.532	0.449	0.425	0.924	0.855	0.926		0.902	0.357	0.519	0.519	0.568	0.383	0.538					
SK-MES-1	0.721	0.877	0.682	0.455	0.487	0.432	0.749	0.43	0.428	0.583	0.505	0.569	0.571	0.585	0.716					
SW 900	0.842	0.959	0.848	0.767						0.913	0.95	0.76	0.826	0.971	0.653	0.552	0.571	0.48		0.702
SW 1573	0.481	0.408	0.46	0.271	1.12	0.949	1	1	1.08	0.37	0.647	0.557	0.567	0.51	0.369					
